According to patent US20230373930A1, “AMINOIMIDAZOLE FPR2 AGONISTS” (BRISTOL-MYERS SQUIBB COMPANY, priority 2020, published 2023):

Assays:
[1] = target: T1, human FPR2 (Homo sapiens, UniProt P25090); test: FPR2 cyclic adenosine monophosphate (cAMP) assay; format: cell-based; settings: CHO cells overexpressing human FPR2; forskolin 5 μM; inhibition of cAMP production; HTRF; read-out: hFPR2 cAMP2 EC50
T1 sequence (P25090 1-351): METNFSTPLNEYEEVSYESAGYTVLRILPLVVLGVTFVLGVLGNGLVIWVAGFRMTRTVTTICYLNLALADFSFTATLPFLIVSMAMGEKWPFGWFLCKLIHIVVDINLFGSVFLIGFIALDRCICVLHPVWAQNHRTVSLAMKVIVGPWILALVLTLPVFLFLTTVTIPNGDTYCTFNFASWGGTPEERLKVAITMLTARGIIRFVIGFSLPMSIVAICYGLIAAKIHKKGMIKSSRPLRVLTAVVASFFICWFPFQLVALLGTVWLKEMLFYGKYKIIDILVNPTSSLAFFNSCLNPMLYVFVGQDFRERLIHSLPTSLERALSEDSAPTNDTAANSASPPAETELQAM
Description: (§1) FPR2 and FPR1 Cyclic Adenosine Monophosphate (cAMP) Assays. A mixture of forskolin (5 μM final for FPR2 or 10 μM final for FPR1) and IBMX (200 μM final) were added to 384-well Proxiplates (Perkin-Elmer) pre-dotted with test compounds in DMSO (1% final) at final concentrations in the range of 0.020 nM to 100 μM. Chinese Hamster Ovary cells (CHO) overexpressing human FPR1 or human FPR2 receptors were cultured in F-12 (Ham's) medium supplemented with 10% qualified FBS, 250 μg/ml zeocin and 300 μg/ml hygromycin (Life Technologies). Reactions were initiated by adding 2,000 human FPR2 cells per well or 4,000 human FPR1 cells per well in Dulbecco's PBS (with calcium and magnesium) (Life Technologies) supplemented with 0.1% BSA (Perkin-Elmer). The reaction mixtures were incubated for 30 min at room temperature. The level of intracellular cAMP was determined using the HTRF HiRange cAMP assay reagent kit (Cisbio) according to manufacturer's instruction. Solutions of cryptate conjugated anti-cAMP and d2 flurorophore-labelled cAMP were made in a supplied lysis buffer separately. Upon completion of the reaction, the cells were lysed with equal volume of the d2-cAMP solution and anti-cAMP solution. After a 1-h room temperature incubation, time-resolved fluorescence intensity was measured using the Envision (Perkin-Elmer) at 400 nm excitation and dual emission at 590 nm and 665 nm. A calibration curve was constructed with an external cAMP standard at concentrations ranging from 1 μM to 0.1 μM by plotting the fluorescent intensity ratio from 665 nm emission to the intensity from the 590 nm emission against cAMP concentrations. The potency and activity of a compound to inhibit cAMP production was then determined by fitting to a 4-parametric logistic equation from a plot of cAMP level versus compound concentrations.

[2] = target: T2, human FPR1 (Homo sapiens, UniProt P21462); test: FPR1 cyclic adenosine monophosphate (cAMP) assay; format: cell-based; settings: CHO cells overexpressing human FPR1; forskolin 10 μM; inhibition of cAMP production; HTRF; read-out: hFPR1 cAMP2 EC50
T2 sequence (P21462 1-350): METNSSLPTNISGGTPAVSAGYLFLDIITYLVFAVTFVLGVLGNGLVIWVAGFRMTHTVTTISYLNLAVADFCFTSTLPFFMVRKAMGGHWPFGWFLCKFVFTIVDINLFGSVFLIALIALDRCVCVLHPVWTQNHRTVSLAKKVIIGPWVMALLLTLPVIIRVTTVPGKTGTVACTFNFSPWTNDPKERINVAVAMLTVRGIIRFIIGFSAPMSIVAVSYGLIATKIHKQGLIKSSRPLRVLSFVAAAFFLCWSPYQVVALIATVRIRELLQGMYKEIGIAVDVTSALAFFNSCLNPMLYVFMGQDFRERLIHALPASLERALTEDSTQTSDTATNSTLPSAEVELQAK
Description: as §1

EC50 [1] [nM]	EC50 [2] [nM]	Compound
77	> 10000	COc1cc(F)c(-n2cc(C(=O)N3CCC[C@H]3CO)nc2NC(=O)c2ccc(OC(F)F)cc2)c(F)c1 [Example 50, N-[1-(2,6-Difluoro-4-methoxyphenyl)-4-[(2S)-2-(hydroxymethyl)pyrrolidine-1-carbonyl]-1H-imidazol-2-yl]-4-(difluoromethoxy)benzamide]
83	2900	COc1cc(F)c(-n2cc(C(=O)N3CCCC(O)C3)nc2NC(=O)c2ccc(OC(F)F)cc2)c(F)c1 (centres unmarked) [Example 51, N-[1-(2,6-Difluoro-4-methoxyphenyl)-4-(3-hydroxypiperidine-1-carbonyl)-1H-imidazol-2-yl]-4-(difluoromethoxy)benzamide]
63	> 10000	COc1cc(F)c(-n2cc(C(=O)N3CCC(O)CC3)nc2NC(=O)c2ccc(OC(F)F)cc2)c(F)c1 [Example 52, N-[1-(2,6-Difluoro-4-methoxyphenyl)-4-(4-hydroxypiperidine-1-carbonyl)-1H-imidazol-2-yl]-4-(difluoromethoxy)benzamide]
320	> 10000	COc1cc(F)c(-n2cc(C(=O)N3CCOCC3)nc2NC(=O)c2ccc(OC(F)F)cc2)c(F)c1 [Example 54, N-[1-(2,6-Difluoro-4-methoxyphenyl)-4-(morpholine-4-carbonyl)-1H-imidazol-2-yl]-4-(difluoromethoxy)benzamide]
280	> 10000	COc1cc(F)c(-n2cc(C(=O)N3CCN(C)CC3)nc2NC(=O)c2ccc(OC(F)F)cc2)c(F)c1 [Example 55, N-[1-(2,6-Difluoro-4-methoxyphenyl)-4-(4-methylpiperazine-1-carbonyl)-1H-imidazol-2-yl]-4-(difluoromethoxy)benzamide]
120	1900	COc1cc(F)c(-n2cc(C(=O)N3CC[C@H](O)C3)nc2NC(=O)c2ccc(OC(F)F)cc2)c(F)c1 [Example 57, N-[1-(2,6-Difluoro-4-methoxyphenyl)-4-[(3S)-3-hydroxypyrrolidine-1-carbonyl]-1H-imidazol-2-yl]-4-(difluoromethoxy)benzamide]
170	3400	COc1cc(F)c(-n2cc(C(=O)N3CCNC(=O)C3)nc2NC(=O)c2ccc(OC(F)F)cc2)c(F)c1 [Example 58, N-[1-(2,6-Difluoro-4-methoxyphenyl)-4-(3-oxopiperazine-1-carbonyl)-1H-imidazol-2-yl]-4-(difluoromethoxy)benzamide]
82	2200	COc1cc(F)c(-n2cc(C(=O)N3CCC(CO)C3)nc2NC(=O)c2ccc(OC(F)F)cc2)c(F)c1 (centres unmarked) [Example 59, N-[1-(2,6-Difluoro-4-methoxyphenyl)-4-[3-(hydroxymethyl)pyrrolidine-1-carbonyl]-1H-imidazol-2-yl]-4-(difluoromethoxy)benzamide]
130	> 10000	COc1cc(F)c(-n2cc(C(=O)N3CCNCC3)nc2NC(=O)c2ccc(OC(F)F)cc2)c(F)c1 [Example 61, N-[1-(2,6-Difluoro-4-methoxyphenyl)-4-(piperazine-1-carbonyl)-1H-imidazol-2-yl]-4-(difluoromethoxy)benzamide]
86	2990	COc1cc(F)c(-n2cc(C(=O)N3CCC(CO)CC3)nc2NC(=O)c2ccc(OC(F)F)cc2)c(F)c1 [Example 69, N-[1-(2,6-difluoro-4-methoxyphenyl)-4-[4-(hydroxymethyl)piperidine-1-carbonyl]-1H-imidazol-2-yl]-4-(difluoromethoxy)benzamide]

The next lines start with the compound.

Compound	EC50 [1] [nM]	EC50 [2] [nM]
COc1cc(F)c(-n2cc(C(=O)NCCO)nc2NC(=O)c2ccc(OC(F)F)cc2)c(F)c1 [Example 53, 1-(2,6-Difluoro-4-methoxyphenyl)-2-[4-(difluoromethoxy)benzamido]-N-(2-hydroxyethyl)-1H-imidazole-4-carboxamide]	130	4100
COc1cc(F)c(-n2cc(C(=O)NCc3cnc(C)cn3)nc2NC(=O)c2ccc(OC(F)F)cc2)c(F)c1 [Example 56, 1-(2,6-Difluoro-4-methoxyphenyl)-2-[4-(difluoromethoxy)benzamido]-N-[(5-methylpyrazin-2-yl)methyl]-1H-imidazole-4-carboxmaide]	89	110
COc1cc(F)c(-n2cc(C(=O)NCCCO)nc2NC(=O)c2ccc(OC(F)F)cc2)c(F)c1 [Example 60, 1-(2,6-Difluoro-4-methoxyphenyl)-2-[4-(difluoromethoxy)benzamido]-N-(3-hydroxypropyl)-1H-imidazole-4-carboxamide]	56	1400
COc1cc(F)c(-n2cc(C(=O)Nc3cn[nH]c3)nc2NC(=O)c2ccc(OC(F)F)cc2)c(F)c1 [Example 62, 1-(2,6-Difluoro-4-methoxyphenyl)-2-[4-(difluoromethoxy)benzamido]-N-(1H-pyrazol-4-yl)-1H-imidazole-4-carboxamide]	32	830
COc1cc(F)c(-n2cc(C3CCNCC3)nc2NC(=O)c2ccc(OC(F)F)cc2)c(F)c1 [Example 63, N-[1-(2,6-Difluoro-4-methoxyphenyl)-4-(piperidin-4-yl)-1H-imidazol-2-yl]-4-(difluoromethoxy)benzamide]	10	710
COc1ccc(-n2cc(C3CCCNC3)nc2NC(=O)c2ccc(OC(F)F)cc2)cc1 (centres unmarked) [Example 64, 4-(Difluoromethoxy)-N-[1-(4-methoxyphenyl)-4-(piperidin-3-yl)-1H-imidazol-2-yl]benzamide]	11	210
CCS(=O)(=O)N1CCC(c2cn(-c3c(F)cc(OC)cc3F)c(NC(=O)c3ccc(OC(F)F)cc3)n2)CC1 [Example 65, N-[1-(2,6-Difluoro-4-methoxyphenyl)-4-[1-(ethanesulfonyl)piperidin-4-yl]-1H-imidazol-2-yl]-4-(difluoromethoxy)benzamide]	81	320
CCNC(=O)N1CCC(c2cn(-c3c(F)cc(OC)cc3F)c(NC(=O)c3ccc(OC(F)F)cc3)n2)CC1 [Example 66, 4-[1-(2,6-Difluoro-4-methoxyphenyl)-2-[4-(difluoromethoxy)benzamido]-1H-imidazol-4-yl]-N-ethylpiperidine-1-carboxamide]	28	540
COc1cc(F)c(-n2cc(C3CCN(C(=O)CCC(N)=O)CC3)nc2NC(=O)c2ccc(OC(F)F)cc2)c(F)c1 [Example 67, N-{4-[1-(3-Carbamoylpropanoyl)piperidin-4-yl]-1-(2,6-difluoro-4-methoxyphenyl)-1H-imidazol-2-yl}-4-(difluoromethoxy)benzamide]	54	83
COc1cc(F)c(-n2cc(C3CCN(C(=O)CCO)CC3)nc2NC(=O)c2ccc(OC(F)F)cc2)c(F)c1 [Example 68, N-[1-(2,6-difluoro-4-methoxyphenyl)-4-[1-(3-hydroxypropanoyl)piperidin-4-yl]-1H-imidazol-2-yl]-4-(difluoromethoxy)benzamide]	45	110
COc1cc(F)c(-n2cc(C(C)C)nc2NC(=O)c2ccc(OC(F)F)cc2)c(F)c1 [Example 70, N-(1-(2,6-Difluoro-4-methoxyphenyl)-4-isopropyl-1H-imidazol-2-yl)-4-(difluoromethoxy)benzamide]	31	970
COc1cc(F)c(-n2cc(Cc3ccccc3)nc2NC(=O)c2ccc(OC(F)F)cc2)c(F)c1 [Example 71, N-[4-benzyl-1-(2,6-difluoro-4-methoxyphenyl)-1H-imidazol-2-yl]-4-(difluoromethoxy)benzamide]	46	1300
